Assay results: patent US7951979B2, “2,4,6-trisubstituted phenols having anesthetic properties” (University of Iowa Research Foundation, priority 2006, dated 2011)

Experiments:
rats = assay: i.v. injection into the lateral tail vein of rats, loss of righting reflex / anesthesia
Protocol: Compound 1 was formulated in 16% Cremophor EL solution in water at a concentration of approximately 15 mg/ml and tested in rats as follows.
Approximately 15 mg/kg of Compound 1 in the suspension were injected into the lateral tail vein of two rats (weight 330-340 g).

GABA receptors = assay: in vitro assay for direct GABA activation; assay type: cell-based; conditions: FIG. 2
Excerpt: Propofol and analogs are known to activate GABA receptors (see, e.g., Trapani et al., J. Med. Chem. 1998, 41, 1846-1854, incorporated herein by reference). While the relationship between GABA activation and anesthetic activity is not completely clear, it is believed that the ability of a compound to directly activate GABA receptors may be related to the anesthetic, sedative, and/or anxiolytic activity of the compound. Compounds of the invention can be tested in in vitro electrophysiological assays to determine the ability of the compound to activate GABA receptors.
Compound 1 was synthesized as described in Example 1. The compound was tested in an in vitro assay for direct GABA activation.

[1] = Rat 1, approximately 15 mg/kg i.v. (lateral tail vein), 16% Cremophor EL in water
[2] = rat, conditions similar to Example 2 (similar dose and route of administration)

Row | Compound | time post-injection at which the rat appeared normal (rats; [1]) | total time of loss of righting reflex (rats; [1]) | total time of loss of righting reflex (rats; Rat 2 (agitated prior to injection), approximately 15 mg/kg i.v. (lateral tail vein), 16% Cremophor EL in water) | duration of anesthesia (rats; rats, about 15 mg/kg i.v.) [min] | tremors, agitation or excitement on injection (rats; rats, about 15 mg/kg i.v.) | overall anesthetic activity (rats; rats, i.v.) | direct activation of GABA receptors (GABA receptors) | induction of anesthesia (rats; [2]) | tremors and shaking upon i.v. injection (rats; [2])
1 | CC(C)c1cc(C(O)C(F)(F)F)cc(C(C)C)c1O (stereo not drawn) [Compound 1, 2,6-diisopropyl-4-(2,2,2-trifluoro-1-hydroxy-ethyl)-phenol] | about 7.5 minutes | about 3.5 minutes | about 2.0 minutes | 2 to 3 | without tremors, agitation or excitement | potent short-acting i.v. anesthetic | capable of direct activation of GABA receptors | – | –
2 | CC(C)c1cc(C(=O)C(F)(F)F)cc(C(C)C)c1O [Compound 2, 2,2,2-trifluoro-1-(4-hydroxy-3,5-diisopropyl-phenyl)-ethanone] | – | – | – | – | – | – | – | did not appear to induce anesthesia | caused tremors and shaking
